The values that follow come from patent US11708357B2, “Crystal form of pyrrolidinyl urea derivative and application thereof” (ZHANGZHOU PIEN TZE HUANG PHARMACEUTICAL CO., LTD., priority 2020, dated 2023).

Common to all, as to type: in vitro ADME
The nature of data set [1]: Metabolic stability in rat liver microsomes. As to conditions: pH 7.4, 0.5 mg protein/mL, read-out: Intrinsic clearance rate of liver microsomes, Rat. As for the experimental part: (§1) The metabolic stability of the test compound in human and rat liver microsomes was tested.
(§2) Test compound (10 mM), Testosterone (reference compound, 10 mM), Diclofenac (reference compound, 10 mM) and Propafenone (reference compound, 10 mM).
(§3) 1. 100 mM potassium phosphate buffer (pH 7.4).
(§4) 1. Intermediate solution: 45 μL of DMSO (with 450 μL of 1:1 methanol/water) was used to dilute 5 μL of the sample for test compound or reference compound.
(§5) 2. Working solution: 450 μL of 100 mM potassium phosphate buffer was used to dilute the intermediate solution.
(§6) 10 μL of the working solution of the test compound or reference compound was added to all plates (T0, T5, T10, T20, T30, T60, and NCF60).
(§7) 680 μL of liver microsome solution was added to each well of 96-well plates, then 80 μL was added to each well of the plates, and the plates were placed at 37° C. for pre-incubation for approximately 10 minutes.
(§8) 10 μL of 100 mM potassium phosphate buffer was added to each well of the NCF60 plate.
(§9) After the pre-incubation, 90 μL NADPH regeneration system working solution was added to each well of the 96-well plates, and then 10 μL was added to each well of the plates to initiate the reaction.
(§10) Incubation for an appropriate time (such as 5, 10, 20, 30, and 60 minutes). […]
(§11) The half-life T1/2 and the intrinsic clearance rate by liver microsome Clint(mic) were calculated by the following formulas: Ct=Cij·e^−k^s^·i • when […]
(In general: Liver microsomes are a subcellular fraction often used to study metabolism.)

The target of another data set is T1, CYP3A4 (Homo sapiens, UniProt P08684).
T1 construct: from tissue; host or cells: human liver microsomes
T1 sequence (P08684 whole entry): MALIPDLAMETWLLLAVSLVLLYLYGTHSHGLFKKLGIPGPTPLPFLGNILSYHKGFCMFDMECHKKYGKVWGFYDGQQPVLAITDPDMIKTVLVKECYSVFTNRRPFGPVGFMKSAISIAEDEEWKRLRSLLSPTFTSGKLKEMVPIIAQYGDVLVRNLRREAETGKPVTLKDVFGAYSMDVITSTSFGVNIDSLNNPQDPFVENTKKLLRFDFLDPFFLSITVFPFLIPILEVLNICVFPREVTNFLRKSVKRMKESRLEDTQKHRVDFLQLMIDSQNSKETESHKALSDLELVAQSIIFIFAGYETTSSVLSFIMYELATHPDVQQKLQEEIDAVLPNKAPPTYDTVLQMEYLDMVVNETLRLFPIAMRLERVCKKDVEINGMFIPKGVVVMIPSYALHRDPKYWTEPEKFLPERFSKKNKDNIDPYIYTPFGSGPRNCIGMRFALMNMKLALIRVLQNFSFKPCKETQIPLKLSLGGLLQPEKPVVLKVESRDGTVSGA
Description: Cytochrome P450 isozyme inhibitory activity test, CYP3A4. The note with it: liver microsomes; human liver microsome. How it is done:
The inhibitory activities of the test compound on different subtypes of human cytochrome P450 isozymes were determined. The test compound, standard inhibitor (100× final concentration), and a mixed substrate working solution were prepared; the microsome frozen in −80° C. refrigerator was thawed. […]

The nature of data set [2]: Metabolic stability in human liver microsomes. The note with it: pH 7.4, 0.5 mg protein/mL, read-out: Intrinsic clearance rate of liver microsomes, Human. As for the experimental part:
as §1, §2, §3, §4, §5, §6, §7, §8, §9, §10, §11

A short description of data set [3]: Plasma protein binding rate (PPB) test, SD rat plasma. As to conditions: 2 μM, dialysis 37° C. 4 hours. How it is done:
The protein binding rates of the test compound in the plasma of humans and SD rats were determined.
796 μL of blank plasma from humans and SD rats (plasma purchased from BioreclamationIVT) were taken, 4 μL of working solution of the test compound (400 μM) or warfarin working solution (400 μM) was added and the final concentration of the test compound or warfarin was 2 μM. The sample was mixed thoroughly. […] All samples were analyzed by LC/MS/MS after protein precipitation, and the plasma protein unbound rate, binding rate and recovery rate was calculated according to the following formula: % unbound rate=100*free compound concentration at the membrane buffer side/total compound concentration at the membrane plasma side, % protein binding rate=100−% unbound rate, % recovery rate=100*(free compound concentration at the membrane buffer side+total compound concentration at the membrane plasma side)/total compound concentration before dialysis.

The structures appear in SMILES notation.

For orientation: IC50 means the concentration needed to halve the response being measured. Lower therefore signals higher potency. As to `COCCN1C[C@@H](n2ccc(F)c2)[C@H](NC(=O)Nc2c(C)c(-c3cnc(C4(F)COC4)nc3)nn2-c2ccccc2)C1` [Compound of formula (I)], the CLint scaled in data set [1] was found to be 24.9 mL/min/kg; in data set [2], 51.7 mL/min/kg. In addition, at CYP3A4, the IC50 at 10 min was greater than 50 µM. The “Plasma protein unbound rate, SD rat plasma” value in data set [3] turned out to be 7.1%.
